The nature of this data set: Solubility comparison in toluene at room temperature. It counts as physicochemical. To be noted: about 50 mg of solid dissolved.

On to `Cc1cc2ccccc2[c-]1[Si](C)(C)[c-]1c(C)cc2ccccc21.[Cl-].[Cl-].[Zr+4]` (stereo not shown) [dimethylsilanediylbis(2-methylindenyl)zirconium dichloride], for which the solubility entry was “about 2.1 mmol/l”. In the case of `CC1=Cc2c(ccc3ccccc23)[C]12[Si](C)(C)[C]1(C(C)=Cc3c1ccc1ccccc31)[Zr]2([Cl])[Cl]` (stereo not shown) [dimethylsilanediylbis(2-methyl-4,5-benzoindenyl)zirconium dichloride] it was “about 0.36 mmol/l”; in that of “Dimethylsilanediylbis(2-methylindenyl)zirconium monochloride mono(2,4-di-tert-butylphenoxide) [compound 2]”, > 15 mmol/L; in that of `CC1=Cc2c(ccc3ccccc23)[C]12[Si](C)(C)[C]1(C(C)=Cc3c1ccc1ccccc31)[Zr]2([Cl])[O]c1ccc(C(C)(C)C)cc1C(C)(C)C` (stereo not shown) [compound 1, Dimethylsilanediylbis(2-methyl-4,5-benzoindenyl)zirconium monochloride mono(2,4-di-tert-butylphenoxide)], > 13 mmol/L.

For the origin of these results see patent publication US7053160B1, “Metallocene monohalogenides” (Basell Polyolefine GmbH, priority 1998, dated 2006).
